{"source": "patent US11083732B2", "about": "“Use of negative modulators of GABA receptors containing alpha5 subunits as fast acting antidepressants” (University of Maryland, Baltimore, priority 2014, dated 2021)", "key": {"[1]": {"tested_on": "str. pyramidale of area CA1 and NAc shell", "experiment": "In vivo field potential recording of oscillatory activity", "parameters": "species or system rat", "procedure": "A1. A 60 min period of continuous recording of spontaneous field potential activity is made under dim illumination. Rats are then injected with either L-665,708 or vehicle, and placed back in the tube for an additional 60-90 min of recording. Discrete fast Fourier transforms are made on 60s-long recording segments for preparation of spectrograms. Oscillation power (area under the curve) is integrated for different frequency bandwidths for power spectral density plots (Θ=3-7 Hz; α=8-12 Hz; β=13-29 Hz; γ=30-80 Hz) (Buhl et al., 1998; Raver et al., 2013). Just as with ketamine (e.g. Kittleberger et al., 2012; Lazarewicz et al., 2010; Hinman et al., 2013), in specific embodiments increases in power are observed by pairwise comparison of spectra before and after drug injection. Initial studies are consistent with this consideration (FIG. 2).\nElectrophysiology in vivo. Tungsten microelectrodes (tip impedances=0.5M,Ω) are implanted stereotaxically in str. pyramidale of area CA 1, layer II of the EC, layer V of the medial PFC, or the shell of the NAc and secured to the skull with cement. After implantation, rats will be habituated to stay still under light restraint (a metal pole connecting the headstage to a rigid arm) in a narrow tube. On-going electrical activity will be recorded in the absence of anesthesia. Field potentials will be analyzed using Spike2 software."}, "[2]": {"tested_on": "amnestic properties of the anesthetic etomidate", "settings": "0.7 mg/kg i.p.; Martin et al (2009); cited from earlier work"}, "[3]": {"tested_on": "chronically stressed rats", "experiment": "Reversal of chronic stress-induced behavioral changes (SPT and SIT; CRS and CUS) overall", "format": "in vivo, rat", "from_the_text": "Chronic restraint stress (CRS). Male Sprague Dawley rats (4-5 weeks-old; Harlan Laboratories) were placed in appropriately sized restraint tubes, highly restricting their movement for periods of four hours in a brightly lit lab, every day for ten days during the light phase of their diurnal cycle (Lim et al., 2012).\nChronic unpredictable stress (CUS). Male Sprague-Dawley rats (4-5 weeks-old; Harlan Laboratories) were randomly divided into control and CUS groups. Rats in the CUS group were individually housed. CUS animals were treated with two mild stressors every day for 5-6 weeks during their light phase (Willner et al., 1987). The stressors were randomly cycled to enhance unpredictability. […]\nSucrose preference test (SPT). […] Sucrose preference was calculated as amount of the sucrose solution consumed as a percentage of the total amount of liquid consumed. […]\nSeveral hedonic behaviors in rodents are sensitive to chronic stress and are restored by chronic, but not acute, administration of SSRIs, providing one means to screen for potential antidepressant compounds. First, it was determined whether L-655,708 would rapidly (<24 hrs) restore normal hedonic behavior following chronic restraint stress (Watanabe et al., 1992; Lim et al., 2012), consistent with the rapid antidepressant-like actions of ketamine (Li et al., 2011). […]"}, "[4]": {"tested_on": "rats subjected to chronic unpredictable stress", "experiment": "Social interaction test (SIT) after chronic unpredictable stress (CUS)", "format": "in vivo, rat", "procedure": "Chronic unpredictable stress (CUS). Male Sprague-Dawley rats (4-5 weeks-old; Harlan Laboratories) were randomly divided into control and CUS groups. Rats in the CUS group were individually housed. CUS animals were treated with two mild stressors every day for 5-6 weeks during their light phase (Willner et al., 1987). The stressors were randomly cycled to enhance unpredictability. The stressors were: forced swim, in which rats were placed in a basin containing cold water for 5 minutes; strobe lighting, in otherwise total darkness for 30 minutes; restraint, during which rats were put into appropriately sized restraint tubes for 30 minutes; exposure to white noise for 30 minutes; and food or water deprivation for 14 hours spanning the dark phase.\nSocial interaction test (SIT). […]\nEach test consisted of a “target-absent” trial followed by a “target-present” trial. During testing, an individual test rat was placed in the center of the arena and, after 30s of adaptation, the rat's movements were recorded with the video camera for 2.5 minutes. […]\nResults were quantified as the percentage of time spent in the “interaction zone” (the five grid squares immediately surrounding the plastic cage) as measured for both the “target-absent” and “target-present” trials. […]"}}, "note": "Entries after “also recorded” stand apart in the source; their conditions may differ."}
{"smiles": "CCOC(=O)c1ncn2c1[C@@H]1CCCN1C(=O)c1cc(OC)ccc1-2", "note": "[L-655,708, ethyl (13aS)-7-methoxy-9-oxo-11, 12,13,13 a-terahydro-9H-imidazo[1,5-a]pyrrolo[2,1-c] [1,4]benzodiazepine-1-carboxylate]", "values": [{"measurement": "persistence of increase in oscillatory activity", "setting": "[1]; CA1 and NAc shell", "result": "persisted for more than one hour"}, {"measurement": "oscillatory activity (theta and beta frequency bands)", "setting": "[1]; str. pyramidale of area CA1 and NAc shell, after injection", "result": "rapid increase"}, {"measurement": "effect on amnestic properties of etomidate", "setting": "[2]", "result": "reverse the amnestic properties"}, {"measurement": "time to reversal of chronic stress-induced depressive-like behavioral changes", "setting": "[3]; CRS and CUS, 0.7 mg/kg i.p., model-independent", "result": "less than 24 hrs"}, {"measurement": "time to reversal of loss of sucrose preference and decrease in social interaction", "setting": "[3]; single injection, l mg/kg intraperitoneally, CUS and CRS", "result": "≤ 24", "unit": "h"}, {"measurement": "number of CUS rats in which social interaction was reversed", "setting": "[4]; CUS 4 weeks plus one week, L-655,708 0.7 mg/kg i.p. 24 hrs earlier", "result": "14 of 18"}, {"measurement": "social interaction", "setting": "[4]; CUS rats, single injection of L-655,708 0.7 mg/kg i.p. 24 hrs earlier", "result": "restores the behavior; also recorded: reversed to levels that were not significantly different than pre-stress baseline"}]}
